Assay results taken from ChEMBL document CHEMBL5370591, “A Potent and Narrow-Spectrum Antibacterial against Clostridioides difficile Infection” (J Med Chem, 2023).

Columns and labels:
Bacillus licheniformis = experiment: Antibacterial activity against Bacillus licheniformis ATCC 12759 assessed as inhibition of bacterial growth by broth microdilution method; assay type: functional
Staphylococcus aureus [1] = experiment: Antibacterial activity against Staphylococcus aureus NRS100 assessed as inhibition of bacterial growth by broth microdilution method; assay type: functional
Enterococcus faecalis [2] = experiment: Antibacterial activity against Enterococcus faecalis ATCC 29212 assessed as inhibition of bacterial growth by broth microdilution method; assay type: functional
Streptococcus oralis = experiment: Antibacterial activity against Streptococcus oralis ATCC 9811 assessed as inhibition of bacterial growth by broth microdilution method; assay type: functional
Staphylococcus aureus [3] = experiment: Antibacterial activity against vancomycin-resistant Staphylococcus aureus clinical isolate 1 assessed as inhibition of bacterial growth by broth microdilution method; assay type: functional
Corynebacterium sp. = experiment: Antibacterial activity against Corynebacterium sp. HM-784 assessed as inhibition of bacterial growth by broth microdilution method; assay type: functional
Enterococcus faecalis [4] = experiment: Antibacterial activity against vancomycin susceptible Enterococcus faecalis 201 assessed as inhibition of bacterial growth by broth microdilution method; assay type: functional
Clostridioides difficile [5] = experiment: Antibacterial activity against Clostridium difficile NR49310 assessed as inhibition of bacterial growth by broth microdilution method; assay type: functional
Enterococcus faecium [6] = experiment: Antibacterial activity against Enterococcus faecium NCTC 7171 assessed as inhibition of bacterial growth by broth microdilution method; assay type: functional
Pseudomonas aeruginosa = experiment: Antibacterial activity against Pseudomonas aeruginosa ATCC27853 assessed as inhibition of bacterial growth by broth microdilution method; assay type: functional
Clostridioides difficile [7] = experiment: Antibacterial activity against Clostridium difficile BAA-1803 assessed as inhibition of bacterial growth by broth microdilution method; assay type: functional
Clostridioides difficile [8] = experiment: Antibacterial activity against Clostridium difficile NR49294 assessed as inhibition of bacterial growth by broth microdilution method; assay type: functional
Eubacterium sp. = experiment: Antibacterial activity against Eubacterium sp. HM-178 assessed as inhibition of bacterial growth by broth microdilution method; assay type: functional
Staphylococcus aureus [9] = experiment: Antibacterial activity against Staphylococcus aureus ATCC 27660 assessed as inhibition of bacterial growth by broth microdilution method; assay type: functional
[10] = system: Staphylococcus epidermidis; experiment: Antibacterial activity against Staphylococcus epidermidis ATCC 35547 assessed as inhibition of bacterial growth by broth microdilution method; assay type: functional
Klebsiella pneumoniae = experiment: Antibacterial activity against Klebsiella pneumoniae ATCC700603 assessed as inhibition of bacterial growth by broth microdilution method; assay type: functional
THP-1 = experiment: Cytotoxicity against human THP-1 cells assessed as increase in LDH release incubate for 24 hrs by trypan-blue staining based analysis; assay type: functional, cell-based; conditions: THP-1, 24 h
Staphylococcus aureus [11] = experiment: Antibacterial activity against vancomycin-resistant Staphylococcus aureus clinical isolate 2 assessed as inhibition of bacterial growth by broth microdilution method; assay type: functional
Clostridioides difficile [12] = experiment: Antibacterial activity against Clostridium difficile NR49302 assessed as inhibition of bacterial growth by broth microdilution method; assay type: functional
Enterococcus faecalis [13] = experiment: Antibacterial activity against vancomycin resistant Enterococcus faecalis 99 assessed as inhibition of bacterial growth by broth microdilution method; assay type: functional
Bifidobacterium longum = experiment: Antibacterial activity against Bifidobacterium longum HM-846 assessed as inhibition of bacterial growth by broth microdilution method; assay type: functional
Staphylococcus aureus [14] = experiment: Antibacterial activity against Staphylococcus aureus ATCC 29213 assessed as inhibition of bacterial growth by broth microdilution method; assay type: functional
Bacillus cereus = experiment: Antibacterial activity against Bacillus cereus ATCC 13061 assessed as inhibition of bacterial growth by broth microdilution method; assay type: functional
Enterococcus faecium [15] = experiment: Antibacterial activity against vancomycin resistant Enterococcus faecium 106 assessed as inhibition of bacterial growth by broth microdilution method; assay type: functional
Streptococcus pyogenes = experiment: Antibacterial activity against Streptococcus pyogenes ATCC 49399 assessed as inhibition of bacterial growth by broth microdilution method; assay type: functional
Staphylococcus aureus [16] = experiment: Antibacterial activity against Staphylococcus aureus NRS120 assessed as inhibition of bacterial growth by broth microdilution method; assay type: functional
Clostridioides difficile [17] = experiment: Antibacterial activity against Clostridium difficile NR49318 assessed as inhibition of bacterial growth by broth microdilution method; assay type: functional
Clostridioides difficile [18] = experiment: Antibacterial activity against Clostridium difficile NR49292 assessed as inhibition of bacterial growth by broth microdilution method; assay type: functional
[19] = Selectivity ratio of IC50 for human THP-1 cells to MIC for Clostridium difficile ATCC 43255; assay type: toxicity
Staphylococcus aureus [20] = experiment: Antibacterial activity against Staphylococcus aureus NRS119 assessed as inhibition of bacterial growth by broth microdilution method; assay type: functional
[21] = system: Staphylococcus haemolyticus; experiment: Antibacterial activity against Staphylococcus haemolyticus ATCC 29970 assessed as inhibition of bacterial growth by broth microdilution method; assay type: functional
Clostridioides difficile [22] = experiment: Antibacterial activity against Clostridium difficile BAA-1870 assessed as inhibition of bacterial growth by broth microdilution method; assay type: functional
Clostridioides difficile [23] = experiment: Antibacterial activity against Clostridium difficile 24531 assessed as inhibition of bacterial growth by broth microdilution method; assay type: functional
Enterococcus faecium [24] = experiment: Antibacterial activity against vancomycin susceptible Enterococcus faecium119-39A assessed as inhibition of bacterial growth by broth microdilution method; assay type: functional; conditions: 119-39A
Bacteroides fragilis = experiment: Antibacterial activity against Bacteroides fragilis HM-709 assessed as inhibition of bacterial growth by broth microdilution method; assay type: functional
Acinetobacter baumannii = experiment: Antibacterial activity against Acinetobacter baumannii ATCC17961 assessed as inhibition of bacterial growth by broth microdilution method; assay type: functional
Clostridioides difficile [25] = experiment: Antibacterial activity against Clostridium difficile ATCC 43255 assessed as inhibition of bacterial growth by broth microdilution method; assay type: functional
Fusobacterium nucleatum = experiment: Antibacterial activity against Fusobacterium nucleatum HM-992 assessed as inhibition of bacterial growth by broth microdilution method; assay type: functional
Lactobacillus gasseri = experiment: Antibacterial activity against Lactobacillus gasseri HM-644 assessed as inhibition of bacterial growth by broth microdilution method; assay type: functional
Veillonella = experiment: Antibacterial activity against Veillonella HM-49 assessed as inhibition of bacterial growth by broth microdilution method; assay type: functional
Clostridioides difficile [26] = experiment: Antibacterial activity against Clostridium difficile NR49305 assessed as inhibition of bacterial growth by broth microdilution method; assay type: functional
Klebsiella aerogenes = experiment: Antibacterial activity against Klebsiella aerogenes ATCC35029 assessed as inhibition of bacterial growth by broth microdilution method; assay type: functional
[27] = system: Limosilactobacillus reuteri; experiment: Antibacterial activity against Lactobacillus reuteri HM-102 assessed as inhibition of bacterial growth by broth microdilution method; assay type: functional
Escherichia coli = experiment: Antibacterial activity against Escherichia coli ATCC25922 assessed as inhibition of bacterial growth by broth microdilution method; assay type: functional
Clostridioides difficile [28] = experiment: Antibacterial activity against Clostridium difficile 26675 assessed as inhibition of bacterial growth by broth microdilution method; assay type: functional

FC(F)(F)c1ccc(Oc2ccc(-c3noc(-c4ccc5[nH]ccc5c4)n3)cc2)cc1
16 µg/mL: MIC (Bacillus cereus)
> 128 µg/mL: MIC (Pseudomonas aeruginosa) | MIC (Klebsiella pneumoniae) | MIC (Acinetobacter baumannii) | MIC (Lactobacillus gasseri) | MIC (Veillonella) | MIC (Klebsiella aerogenes) | MIC [27] | MIC (Escherichia coli)
4 µg/mL: MIC (Enterococcus faecalis [4]) | MIC (Staphylococcus aureus [9]) | MIC (Enterococcus faecalis [13]) | MIC (Staphylococcus aureus [14]) | MIC (Clostridioides difficile [22]) | MIC (Clostridioides difficile [23]) | MIC (Bacteroides fragilis) | MIC (Clostridioides difficile [26]) | MIC (Clostridioides difficile [28])
8 µg/mL: MIC (Bacillus licheniformis) | MIC (Enterococcus faecalis [2]) | MIC [21]
0.25 µg/mL: MIC (Bifidobacterium longum)
17: selectivity ratio [19]
69 µg/mL: IC50 (THP-1)
1 µg/mL: MIC (Clostridioides difficile [8]) | MIC (Enterococcus faecium [24]) | MIC (Fusobacterium nucleatum)
64 µg/mL: MIC (Streptococcus pyogenes)
2 µg/mL: MIC (Staphylococcus aureus [1]) | MIC (Staphylococcus aureus [3]) | MIC (Corynebacterium sp.) | MIC (Clostridioides difficile [5]) | MIC (Enterococcus faecium [6]) | MIC (Clostridioides difficile [7]) | MIC (Eubacterium sp.) | MIC [10] | MIC (Staphylococcus aureus [11]) | MIC (Clostridioides difficile [12]) | MIC (Enterococcus faecium [15]) | MIC (Staphylococcus aureus [16]) | MIC (Clostridioides difficile [17]) | MIC (Clostridioides difficile [18]) | MIC (Staphylococcus aureus [20]) | MIC (Clostridioides difficile [25])
128 µg/mL: MIC (Streptococcus oralis)
